Laboratory results taken from patent US20220380368A1, “SPIROCYCLIC ANDROGEN RECEPTOR PROTEIN DEGRADERS” (THE REGENTS OF THE UNIVERSITY OF MICHIGAN, priority 2019, published 2022).

The compounds below were run against T1, AR protein (Homo sapiens, UniProt P10275) (assay: Western blotting analysis of AR protein levels in VCaP cells, band quantification, DC50/DC90). Conditions: VCaP cells, Table 6; read-out: VCaP DC50.
T1 construct: endogenous in cells; host or cells: VCaP
T1 sequence (P10275 1-920): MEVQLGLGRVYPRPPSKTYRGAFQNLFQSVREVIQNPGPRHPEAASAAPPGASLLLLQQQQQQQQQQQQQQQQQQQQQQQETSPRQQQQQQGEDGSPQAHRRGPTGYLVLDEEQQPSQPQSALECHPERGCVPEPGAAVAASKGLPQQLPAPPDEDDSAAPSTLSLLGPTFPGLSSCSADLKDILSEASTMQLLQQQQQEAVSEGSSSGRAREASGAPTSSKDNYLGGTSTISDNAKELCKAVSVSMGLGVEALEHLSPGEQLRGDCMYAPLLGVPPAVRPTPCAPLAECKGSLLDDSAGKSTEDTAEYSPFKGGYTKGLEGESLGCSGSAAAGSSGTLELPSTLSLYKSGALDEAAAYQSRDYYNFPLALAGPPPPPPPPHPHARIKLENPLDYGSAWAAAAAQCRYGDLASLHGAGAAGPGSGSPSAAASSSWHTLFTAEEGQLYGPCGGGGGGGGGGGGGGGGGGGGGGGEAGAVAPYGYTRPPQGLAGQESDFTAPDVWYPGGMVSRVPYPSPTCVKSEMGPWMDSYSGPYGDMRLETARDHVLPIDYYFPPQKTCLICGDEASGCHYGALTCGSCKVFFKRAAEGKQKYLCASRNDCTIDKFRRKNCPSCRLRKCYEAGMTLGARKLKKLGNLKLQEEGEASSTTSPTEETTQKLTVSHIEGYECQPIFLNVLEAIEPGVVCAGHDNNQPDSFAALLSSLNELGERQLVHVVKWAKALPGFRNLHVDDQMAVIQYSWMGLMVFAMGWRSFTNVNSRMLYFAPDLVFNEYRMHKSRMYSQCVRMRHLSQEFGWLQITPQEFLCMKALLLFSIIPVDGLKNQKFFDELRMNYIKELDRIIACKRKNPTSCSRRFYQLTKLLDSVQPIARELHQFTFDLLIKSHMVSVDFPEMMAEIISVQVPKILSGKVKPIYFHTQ
Type: cell-based
Procedure: The appropriate cell line, e.g., prostate cancer LNCaP, Vcap, or 22RV1 cell line, was treated with Compounds of the Disclosure as indicated. The treated cells were lysed with RIPA buffer. […] GAPDH was used as a loading control.
Bands were quantified with ImageJ software. The relative numbers of each band obtained from normalization with its corresponding GAPDH level were compared with Prism 8 software. The DC50 values were produced from Prism 8, and the DC90 values were calculated with an equation=Bottom+(Top−Bottom)/(1+10^((Log EC50−X)*HillSlope) based on DC50 and Hillslope values.
Compound `C[C@H]1CC2(CCN(c3ccc(C(=O)N4CCN(C5CN(c6cc7c(cc6F)C(=O)N(C6CCC(=O)NC6=O)C7=O)C5)CC4)cn3)CC2)CN1c1ccc(C#N)c(Cl)c1` (stereo partly drawn) [Cpd. No. 504, 2-chloro-4-((3S)-8-(5-(4-(1-(2-(2,6-dioxopiperidin-3-yl)-6-fluoro-1,3-dioxoisoindolin-5-yl)azetidin-3-yl)piperazine-1-carbonyl)pyridin-2-yl)-3-methyl-2,8-diazaspiro[4.5]decan-2-yl)benzonitrile] has a DC50 of less than 1 nM.
In the case of `C[C@H]1CC2(CCN(c3ccc(C(=O)N4CCN(C5CN(c6cc7c(cc6F)C(=O)N(C6CCC(=O)NC6=O)C7=O)C5)CC4)cn3)CC2)CN1c1ccc(C#N)c(Cl)c1` (stereo partly drawn) [Cpd. No. 506, 2-chloro-4-((3S)-8-(5-(4-(1-(2-(2,6-dioxopiperidin-3-yl)-6-fluoro-1,3-dioxoisoindolin-5-yl)azetidin-3-yl)piperazine-1-carbonyl)pyridin-2-yl)-3-methyl-2,8-diazaspiro[4.5]decan-2-yl)benzonitrile], the DC50 was less than 1 nM.
For `C[C@H]1CC2(CCN(c3ccc(C(=O)N4CCN(C5CN(c6cc7c(cc6F)C(=O)N(C6CCC(=O)NC6=O)C7=O)C5)CC4)cn3)CC2)CN1c1ccc(C#N)c(Cl)c1` (stereo partly drawn) [Cpd. No. 507, 2-chloro-4-((3S)-8-(5-(4-(1-(2-(2,6-dioxopiperidin-3-yl)-6-fluoro-1,3-dioxoisoindolin-5-yl)azetidin-3-yl)piperazine-1-carbonyl)pyridin-2-yl)-3-methyl-2,8-diazaspiro[4.5]decan-2-yl)benzonitrile], the DC50 was 10 to 100 nM.
`C[C@H]1CC2(CCN(c3ccc(C(=O)N4CCN(C5CCN(c6ccc7c(c6)C(=O)N(C6CCC(=O)NC6=O)C7=O)CC5)CC4)cn3)CC2)CN1c1ccc(C#N)c(Cl)c1` (stereo partly drawn) [Cpd. No. 508, 2-chloro-4-((3S)-8-(5-(4-(1-(2-(2,6-dioxopiperidin-3-yl)-1,3-dioxoisoindolin-5-yl)piperidin-4-yl)piperazine-1-carbonyl)pyridin-2-yl)-3-methyl-2,8-diazaspiro[4.5]decan-2-yl)benzonitrile] was tested, and the DC50 was less than 1 nM.
With `C[C@H]1CC2(CCN(c3ccc(C(=O)N4CCN(C5CCN(c6ccc7c(c6)C(=O)N(C6CCC(=O)NC6=O)C7=O)CC5)CC4)cn3)CC2)CN1c1ccc(C#N)c(Cl)c1` (stereo partly drawn) [Cpd. No. 509, 2-chloro-4-((3S)-8-(5-(4-(1-(2-(2,6-dioxopiperidin-3-yl)-1,3-dioxoisoindolin-5-yl)piperidin-4-yl)piperazine-1-carbonyl)pyridin-2-yl)-3-methyl-2,8-diazaspiro[4.5]decan-2-yl)benzonitrile] the DC50 was less than 1 nM.
`C[C@H]1CC2(CCN(c3ncc(C(=O)N4CCN(C5CN(c6ccc7c(c6)C(=O)N(C6CCC(=O)NC6=O)C7=O)C5)CC4)cn3)CC2)CN1c1ccc(C#N)c(Cl)c1` (stereo partly drawn) [Cpd. No. 512, 2-chloro-4-((3S)-8-(5-(4-(1-(2-(2,6-dioxopiperidin-3-yl)-1,3-dioxoisoindolin-5-yl)azetidin-3-yl)piperazine-1-carbonyl)pyrimidin-2-yl)-3-methyl-2,8-diazaspiro[4.5]decan-2-yl)benzonitrile] showed a DC50 of less than 1 nM.
For `C[C@H]1CC2(CCN(c3ncc(C(=O)N4CCN(C5CCN(c6ccc7c(c6)C(=O)N(C6CCC(=O)NC6=O)C7=O)CC5)CC4)cn3)CC2)CN1c1ccc(C#N)c(Cl)c1` (stereo partly drawn) [Cpd. No. 513, 2-chloro-4-((3S)-8-(5-(4-(1-(2-(2,6-dioxopiperidin-3-yl)-1,3-dioxoisoindolin-5-yl)piperidin-4-yl)piperazine-1-carbonyl)pyrimidin-2-yl)-3-methyl-2,8-diazaspiro[4.5]decan-2-yl)benzonitrile], the DC50 was less than 1 nM.
`C[C@H]1CC2(CCN(c3ncc(C(=O)N4CCC(N5CCN(c6ccc7c(c6)C(=O)N(C6CCC(=O)NC6=O)C7=O)CC5)CC4)cn3)CC2)CN1c1ccc(C#N)c(Cl)c1` (stereo partly drawn) [Cpd. No. 514, 2-chloro-4-((3S)-8-(5-(4-(4-(2-(2,6-dioxopiperidin-3-yl)-1,3-dioxoisoindolin-5-yl)piperazin-1-yl)piperidine-1-carbonyl)pyrimidin-2-yl)-3-methyl-2,8-diazaspiro[4.5]decan-2-yl)benzonitrile] gave a DC50 of less than 1 nM.
`C[C@H]1CC2(CCN(c3ccc(C(=O)N4CC[C@@H](N5CCN(c6cc7c(cc6F)C(=O)N(C6CCC(=O)NC6=O)C7=O)CC5)C4)cc3)CC2)CN1c1ccc(C#N)c(Cl)c1` (stereo partly drawn) [Cpd. No. 515, 2-chloro-4-((3S)-8-(4-((3R)-3-(4-(2-(2,6-dioxopiperidin-3-yl)-6-fluoro-1,3-dioxoisoindolin-5-yl)piperazin-1-yl)pyrrolidine-1-carbonyl)phenyl)-3-methyl-2,8-diazaspiro[4.5]decan-2-yl)benzonitrile] gave a DC50 of 10 to 100 nM.
Work on `C[C@H]1CC2(CCN(c3ccc(C(=O)N4CC[C@H](N5CCN(c6ccc7c(c6)C(=O)N(C6CCC(=O)NC6=O)C7=O)CC5)C4)cc3)CC2)CN1c1ccc(C#N)c(Cl)c1` (stereo partly drawn) [Cpd. No. 516, 2-chloro-4-((3S)-8-(4-((3S)-3-(4-(2-(2,6-dioxopiperidin-3-yl)-1,3-dioxoisoindolin-5-yl)piperazin-1-yl)pyrrolidine-1-carbonyl)phenyl)-3-methyl-2,8-diazaspiro[4.5]decan-2-yl)benzonitrile] yielded a DC50 of 1 to 10 nM.
For `C[C@H]1CC2(CCN(c3ccc(C(=O)N4CC[C@@H](N5CCN(c6cc7c(cc6F)C(=O)N(C6CCC(=O)NC6=O)C7=O)CC5)C4)cc3)CC2)CN1c1ccc(C#N)c(Cl)c1` (stereo partly drawn) [Cpd. No. 517, 2-chloro-4-((3S)-8-(4-((3R)-3-(4-(2-(2,6-dioxopiperidin-3-yl)-6-fluoro-1,3-dioxoisoindolin-5-yl)piperazin-1-yl)pyrrolidine-1-carbonyl)phenyl)-3-methyl-2,8-diazaspiro[4.5]decan-2-yl)benzonitrile], the DC50 was 1 to 10 nM.
Work on `C[C@H]1CC2(CCN(c3ccc(C(=O)N4CCN(C5CCN(c6ccc7c(c6)C(=O)N(C6CCC(=O)NC6=O)C7=O)CC5)CC4)cc3F)CC2)CN1c1ccc(C#N)c(Cl)c1` (stereo partly drawn) [Cpd. No. 518, 2-chloro-4-((3S)-8-(4-(4-(1-(2-(2,6-dioxopiperidin-3-yl)-1,3-dioxoisoindolin-5-yl)piperidin-4-yl)piperazine-1-carbonyl)-2-fluorophenyl)-3-methyl-2,8-diazaspiro[4.5]decan-2-yl)benzonitrile] yielded a DC50 of 10 to 100 nM.
Work on `C[C@H]1CC2(CCN(c3ccc(C(=O)N4CCN(C5CCN(c6ccc7c(c6)C(=O)N(C6CCC(=O)NC6=O)C7=O)CC5)CC4)cc3F)CC2)CN1c1ccc(C#N)c(Cl)c1` (stereo partly drawn) [Cpd. No. 519, 2-chloro-4-((3S)-8-(4-(4-(1-(2-(2,6-dioxopiperidin-3-yl)-1,3-dioxoisoindolin-5-yl)piperidin-4-yl)piperazine-1-carbonyl)-2-fluorophenyl)-3-methyl-2,8-diazaspiro[4.5]decan-2-yl)benzonitrile] yielded a DC50 of less than 1 nM.
Compound `C[C@H]1CC2(CCN(c3ccc(C(=O)N4CCN(C5CCN(c6ccc7c(c6)C(=O)N(C6CCC(=O)NC6=O)C7=O)CC5)CC4)cc3F)CC2)CN1c1ccc(C#N)c(Cl)c1` (stereo partly drawn) [Cpd. No. 520, 2-chloro-4-((3S)-8-(4-(4-(1-(2-(2,6-dioxopiperidin-3-yl)-1,3-dioxoisoindolin-5-yl)piperidin-4-yl)piperazine-1-carbonyl)-2-fluorophenyl)-3-methyl-2,8-diazaspiro[4.5]decan-2-yl)benzonitrile] has a DC50 of less than 1 nM.
Work on `C[C@H]1CC2(CCN(c3ncc(C(=O)N4CCN(C5CN(c6cc7c(cc6F)C(=O)N(C6CCC(=O)NC6=O)C7=O)C5)CC4)cn3)CC2)CN1c1ccc(C#N)c(Cl)c1` (stereo partly drawn) [Cpd. No. 523, 2-chloro-4-((3S)-8-(5-(4-(1-(2-(2,6-dioxopiperidin-3-yl)-6-fluoro-1,3-dioxoisoindolin-5-yl)azetidin-3-yl)piperazine-1-carbonyl)pyrimidin-2-yl)-3-methyl-2,8-diazaspiro[4.5]decan-2-yl)benzonitrile] yielded a DC50 of less than 1 nM.

Same assay, conditions: read-out: VCaP DC50; VCaP cells, Table 6
Work on `C[C@H]1CC2(CCN(c3ccc(C(=O)N4CCN(C5CN(c6cc7c(cc6F)C(=O)N(C6CCC(=O)NC6=O)C7=O)C5)CC4)cn3)CC2)CN1c1ccc(C#N)c(Cl)c1` (stereo partly drawn) [Cpd. No. 505, 2-chloro-4-((3S)-8-(5-(4-(1-(2-(2,6-dioxopiperidin-3-yl)-6-fluoro-1,3-dioxoisoindolin-5-yl)azetidin-3-yl)piperazine-1-carbonyl)pyridin-2-yl)-3-methyl-2,8-diazaspiro[4.5]decan-2-yl)benzonitrile] yielded a DC50 of less than 1 nM.
